# Laboratory results reported in patent publication US20160250238A1, “Method for the Prophylaxis or Treatment of Systemic Lupus Erythematosus and/or Lupus Nephritis” (MILLENNIUM PHARMACEUTICALS, INC., priority 2013, published 2016).
# Marks after values point to notes of the source that are not given here.
# Tests used:
# anti-KLH IgG = assay: ELISA for anti-KLH IgG titer in serum of KLH-immunized rats (rat KLH-TDAR model); format: in vivo, F344 rats; conditions: for Anti-KLH IgG titer: twice weekly for 4 weeks, serum, mean ± SE (n = 10)
# Experimental: (§1) F344 rats (male, 7 weeks old) were immunized with KLH plus adjuvant twice at day 0 and day 14. From 8 days after last immunization, rats were administered with vehicle or compound (I) (0.3 mpk, i.v. or 1.5 mpk, p.o.) twice weekly for 4 weeks, then the rats were sacrificed and serum, spleen and bone marrow were collected. All study protocols were approved by TAKEDA Animal Care and Use Committee.
# Serum was stored at −80° C. until use. Anti-KLH IgG titer in serum was measured by ELISA (KLH rat IgG ELISA kit, Shibayagi).
# (§2) Data represent mean values+s.e.m. (n=10). Student t test was used for statistical analysis (*p<0.05, **p<0.01 vs. control).
# [1] = system: anti-KLH antibody producing cells; assay: ELISpot assay of anti-KLH IgG-secreting cells from spleen and bone marrow of KLH-immunized rats; format: in vivo, F344 rats; conditions: for The number of anti-KLH IgG-secreting cells, bone marrow / The number of anti-KLH IgG-secreting cells, Spleen: twice weekly for 4 weeks, mean ± SE (n = 10)
# Experimental: as §1
# Splenocytes and bone marrow cells were collected from spleen and bone marrow. The cells were cultured for 2 hours on 96 well plate pre-coated with KLH (Sigma, H7017-20 MG), then after washing with PBS, the plates were incubated with goat anti-rat IgG, HRP conjugate (Millipore, AP136P) for 1 hour. Anti-KLH antibody producing cells were visualized by adding TMB substrate and the number of anti-KLH antibody producing cells were counted by ELISpot reader system (AID).
# as §2
smiles,measurement,setting,value
"CC(C)C[C@H](NC(=O)CNC(=O)c1cc(Cl)ccc1Cl)B(O)O [Compound (I), [(1R)-1-({[(2,5-dichlorobenzoyl)amino]acetyl}amino)-3-methylbutyl]boronic acid]",Anti-KLH IgG titer,"anti-KLH IgG; 0.3 mpk, iv",509.5 ± 54.4*
same,Anti-KLH IgG titer,"anti-KLH IgG; 1.5 mpk, po",545.8 ± 67.0*
same,effect on anti-KLH IgG titer (in words),"anti-KLH IgG; four weeks treatment, 0.3 mpk, i.v. or 1.5 mpk, p.o.",significantly suppressed the anti-KLH IgG titer
same,"The number of anti-KLH IgG-secreting cells, bone marrow","[1]; 0.3 mpk, iv",103.9 ± 16.9** /3 × 10^5cells
same,"The number of anti-KLH IgG-secreting cells, Spleen","[1]; 0.3 mpk, iv",37.0 ± 6.8** /1 × 10^6cells
same,"The number of anti-KLH IgG-secreting cells, bone marrow","[1]; 1.5 mpk, po",156.4 ± 32.0 /3 × 10^5cells
same,"The number of anti-KLH IgG-secreting cells, Spleen","[1]; 1.5 mpk, po",50.1 ± 12.2* /1 × 10^6cells
same,effect on the number of anti-KLH IgG-producing cells in spleen and bone marrow (in words),"[1]; four weeks treatment, 0.3 mpk, i.v. or 1.5 mpk, p.o., ELISpot",suppressed the number of anti-KLH IgG-producing cells in spleen and bone marrow
